Assay results published in PMC4535335 (Bioorganic & medicinal chemistry letters, 2014).

Columns and labels:
[1] = plasma protein binding; cited from earlier work
[2] = cited from earlier work
[3] = cited from earlier work; remark: listed apart in the source
[4] = intrinsic clearance in rat hepatic microsomes fortified with NADPH; assay type: in vitro ADME; details: OCD3 for OCH3
[5] = intrinsic clearance in human hepatic microsomes fortified with NADPH; assay type: in vitro ADME

SMILES	human fu [1]	rat brain fu [2]	brain:plasma Kp [3]	improvement to rat intrinsic clearance relative to VU6000181 [4]	reduction of human in vitro intrinsic clearance relative to VU6000181 ([5]; OCD3 for OCH3)	CLint scaled ([5]; human, microsomes) [mL/min/kg]
O=C(c1ccc(F)c(F)c1)N1CCN2C(=O)c3ccccc3[C@@]12c1ccc(Cl)cc1 [ML375]	0.013	0.003	1.8	–	–	–
[2H]C([2H])([2H])Oc1ccc([C@@]23c4ccccc4C(=O)N2CCN3C(=O)c2cc(F)c(F)c(F)c2)cc1C [VU6001005]	–	–	–	negligible improvement	~ 5 fold	72.9
